Laboratory results published in article PMC10743895, “Synthesis of 1,3,4-Thiadiazole Derivatives and Their Anticancer Evaluation” (International Journal of Molecular Sciences, 2023).
Like-named read-outs stand apart in the source and are kept apart here.

What was measured:
LoVo cells [1] = test: MTS cell viability assay, LoVo cells; format: cell-based, human; conditions: Homo sapiens, LoVo
Description: (§1) To determine the optimal working concentration, dose-effect curves were made for each compound in the range of concentrations between 6.25 and 400 μM.
(§2) LoVo (human colorectal adenocarcinoma) human cancer cell line and HUVEC normal cells were purchased from American Type Culture Collection (ATCC). The MCF-7 human breast adenocarcinoma cell line was provided from European Collection of Authenticated Cell Cultures (ECACC). HUVEC normal cells, isolated from the vascular endothelium of an umbilical cord, were used as a reference. Adherent cells were maintained in culture in Dulbecco’s modified Eagle medium/nutrient mixture F-12 (DMEM:F12) with 2 mM of L-glutamine, 10% fetal bovine serum, 100 units/mL of penicillin and 100 μg/mL of streptomycin, and incubated at 37 °C in a 5% CO2-humidified atmosphere. After 24 h, adherent cells were treated with different concentrations of the compounds for different periods of time. Cis-Pt and DOX, conventional oncology drugs used in cancer treatments, can be used as a positive control of the experiments. […] Then, cells were detached with a nonenzymatic solution of phosphate-buffered saline (PBS)/1 mM EDTA and washed twice in PBS.
(§3) The study utilized a colorimetric assay based on MTS (chemically known as 3-(4,5-dimethylthiazol-2-yl)-5-(3-carboxymethoxyphenyl)-2-(4-sulfophenyl)-2H-tetrazolium) and called CellTiter 96 Aqueous One Solution Cell proliferation Assay (Promega, Madison, WI, USA) in order to measure cell viability. The assay was performed in triplicate in 96-well microtiter plates with a flat bottom (Falcon). A number of 1 × 10^4 cells/well were cultured in 100 μL for 24 h, culture supernatants were discarded, and then cells were treated for 24 and 48 h with increasing concentrations of the tested compound. After the end of the incubation time, 20 μL of the reagent containing MTS and PES (phenazine ethosulfate) was added in each well. Plates were incubated for 4 h at 37 °C, with mild agitation every 15 min. The reduction in the tetrazolium compound to formazan was spectrophotometrically measured at λ = 492 nm using a Dynex plate reader (DYNEX Technologies MRS, Chantilly, VA, USA). The percentage of viability compared to untreated cells (considered 100% viable) was calculated with the formula:(1) Cell viability (%)=Absorbance treated cells−Absorbance culture medium/Absorbance untreated cells−Absorbance culture medium×100
(§4) The cell viability compared was calculated and data were expressed as a mean ± standard deviation (SD) of the experiments and obtained in triplicate (n = 3).

LoVo cells [2] = test: Apoptosis assay (Annexin V-FITC/PI flow cytometry), LoVo; format: cell-based, human
Description: (§5) Two reference concentrations, 5 μM and 50 μM, and two distinct treatment durations, 24 and 48 h, were employed to assess the influence of the test compounds on apoptosis in both normal and tumor cells. […] HUVEC cells were exposed to both drugs.
(§6) The apoptosis assay was performed according to the manufacturer’s instructions using the Annexin V-FITC kit (BD Biosciences, San Jose, CA, USA). Cells untreated and treated with the experimental compound were suspended in a cold binding buffer. The percentages of apoptotic cells were determined by double staining with Annexin V-FITC/PI. In each tube was added 400 μL of Annexin V binding buffer and the 5000 cells/sample for 15 min in the dark at room temperature. The cells were analyzed using a FACSCantoII flow-cytometer (Becton Dickinson—BD, La Jolla, CA, USA). The analysis was performed using DIVA 6.2 software to discriminate viable cells (FITC-PI-) from necrotic cells (FITC + PI+), and early apoptosis (FITC + PI) from late apoptosis.

MCF-7 cells [3] = test: MTS cell viability assay, MCF-7 cells; format: cell-based, human; conditions: Homo sapiens
Description: as §1, §2, §3, §4

HUVEC cells = test: Apoptosis assay (Annexin V-FITC/PI flow cytometry), HUVEC; format: cell-based, human
Description: as §5, §6

MCF-7 cells [4] = test: Apoptosis assay (Annexin V-FITC/PI flow cytometry), MCF-7; format: cell-based, human
Description: as §5, §6

Daphnia magna = Daphnia magna toxicity assay; format: in vivo; conditions: up to 200 µM
Description: (§7) The Daphnia magna bioassay results are presented in Table 3 as the maximum average percentage of lethality (L%) registered for each compound and the median lethal concentration (LC50) if the values permitted its calculation.
(§8) Daphnia magna Straus is parthenogenetically maintained at ‘Carol Davila’ University’s Department of Pharmaceutical Botany and Cell Biology. The culture was consistently maintained at a temperature of 25 °C, with a 16-h light and 8-h dark photoperiod. To ensure consistency, young daphnids were carefully chosen based on their size and kept in an artificial medium for 24 h prior to the assessment. The bioassay involved 10 daphnids per replicate, using tissue culture plates with 12 wells from Greiner Bio-One. The experimental procedure followed the protocol described in previous studies.
(§9) Each determination was carried out in duplicate.

[5] = Daphnia magna toxicity assay; format: in vivo; conditions: Daphnia magna, in vivo
Description: as §7, §8, §9

HUVEC normal cells = test: MTS cell viability assay, HUVEC normal cells; format: cell-based, human; conditions: Homo sapiens, HUVEC
Description: as §1, §2, §3, §4

MCF-7 = tested on: MCF-7; parameters: method as in earlier work; conditions: ref 16 (Yang et al.); cited from earlier work
[6] = read-out: IC50 (48 h) LoVo, 48 h exposure
[7] = 24 h exposure, read-out: IC50 (24 h) LoVo
[8] = MCF7, read-out: IC50 (48 h) MCF-7, 48 h exposure
[9] = MCF7, 24 h exposure, read-out: IC50 (24 h) MCF-7
[10] = read-out: IC50 (48 h) HUVEC, 48 h exposure
[11] = 24 h exposure, read-out: IC50 (24 h) HUVEC

| IC50 (LoVo cells [1]; [6]) [µM] | IC50 (LoVo cells [1]; [7]) [µM] | IC50 (MCF-7 cells [3]; [8]) [µM] | IC50 (MCF-7 cells [3]; [9]) [µM] | Compound | Total Apoptosis (%) 24 h LoVo (LoVo cells [2]; 5 μM) [%] | Total Apoptosis (%) 48 h LoVo (LoVo cells [2]; 5 μM) [%] | Total Apoptosis (%) 24 h LoVo (LoVo cells [2]; 50 μM) [%] | Total Apoptosis (%) 48 h LoVo (LoVo cells [2]; 50 μM) [%] | Total Apoptosis (%) 24 h HUVEC (HUVEC cells; 5 μM) [%] | Total Apoptosis (%) 48 h HUVEC (HUVEC cells; 5 μM) [%] | Total Apoptosis (%) 24 h HUVEC (HUVEC cells; 50 μM) [%] | Total Apoptosis (%) 48 h HUVEC (HUVEC cells; 50 μM) [%] | Total Apoptosis (%) 24 h MCF-7 (MCF-7 cells [4]; 5 μM) [%] | Total Apoptosis (%) 48 h MCF-7 (MCF-7 cells [4]; 5 μM) [%] | Total Apoptosis (%) 24 h MCF-7 (MCF-7 cells [4]; 50 μM) [%] | Maximum Average L% (lethality) (Daphnia magna; 24 h) [%] | Maximum Average L% (lethality) (Daphnia magna; 48 h) [%] | LC50 at 48 h [5] [µM] | IC50 (HUVEC normal cells; [10]) [µM] | IC50 (HUVEC normal cells; [11]) [µM] | further results |
| --- | --- | --- | --- | --- | --- | --- | --- | --- | --- | --- | --- | --- | --- | --- | --- | --- | --- | --- | --- | --- | --- |
| 29.2 | 53.6 | 122 | 154 | COc1ccc(OC)c(-c2nnc(N)s2)c1 [2d, 5-(2,5-Dimethoxyphenyl)-1,3,4-thiadiazol-2-amine] | 13.5 | 19.3 | 12.0 | 17.9 | 28.4 | 14.4 | 19.8 | 16.8 | 14.6 | 37.6 | 11.8 | 40 | 95 | 50.7 | 94.8 | > 400 | Total Apoptosis (%) 48 h MCF-7 (MCF-7 cells [4]; 50 μM): 34.9%; LC50 at 24 h [5]: 241 µM |
| > 400 | > 400 | > 400 | > 400 | CC(=O)Nc1nnc(-c2ccccc2)s1 [3a, N-(5-Phenyl-1,3,4-thiadiazol-2-yl)acetamide] | 14.9 | 20.1 | 14.5 | 22.3 | 26.6 | 18.2 | 22.6 | 20.1 | 17.6 | 24.9 | 17.9 | 95 | 100 | < 6.25 | > 400 | > 400 | LC50 at 24 h [5]: < 6.25 µM |
| 62.5 | 174 | > 400 | > 400 | O=C(Nc1nnc(-c2ccccc2)s1)c1ccccc1 [3b, N-(5-Phenyl-1,3,4-thiadiazol-2-yl)benzamide] | 12.5 | 22.2 | 12.6 | 20.9 | 17.8 | 15.3 | 17.0 | 15.9 | 19.2 | 43.7 | 16.4 | 5 | 45 | 228 | > 400 | > 400 | viability at 200 µM (LoVo cells [1]; 24 h, 200 μM, read-out: viability of LoVo tumor cells): < 50%; IC50 (MCF-7): 5.87 µM; Total Apoptosis (%) 48 h MCF-7 (MCF-7 cells [4]; 50 μM): 41.3% |
| > 400 | > 400 | > 400 | > 400 | O=C(Nc1nnc(-c2ccccc2)s1)c1ccccc1CSc1ccccc1 [3c, 2-Phenylthiomethyl-N-(5-phenyl-1,3,4-thiadiazol-2-yl)benzamide] | 14.8 | 27.6 | 11.2 | 24.5 | 15.5 | 13.5 | 16.9 | 14.7 | 16.4 | 39.3 | 14.3 | 10 | 55 | 188 | > 400 | > 400 | Total Apoptosis (%) 48 h MCF-7 (MCF-7 cells [4]; 50 μM): 37.3% |
